Measured values from US12144365B2, “Emulsions and derivatives for infusing hydrophobic active agents into an edible product” (priority 2021, dated 2024).

Experiment: Potency loss of actives infused into isomalt based candy at 300° F.
Format: physicochemical

Row | SMILES | Potency loss %: 300° F. for 5 minutes, Infused by Quillaja extract emulsion | Potency loss %: 300° F. for 5 minutes, Infused by gum acacia emulsion | Potency loss %: 300° F. for 15 minutes, Infused by Quillaja extract emulsion | Potency loss %: 300° F. for 15 minutes, Infused by gum acacia emulsion
1 | C=C(C)[C@@H]1CCC(C)=C[C@H]1c1c(O)cc(CCCCC)cc1O [CBD, cannabidiol, reference compound] | −5% | −3% | −4% | −2%
2 | CCCCCc1cc(O)c2c(c1)OC(C)(C)c1ccc(C)cc1-2 [CBN, cannabinol] | −1% | 0% | −1% | 0%
3 | C=C(C)[C@H]1CC=C(C)CC1 [Limonene, limonene] | −37% | −12% | −69% | −17%
4 | C=CC(=C)CCC=C(C)C [Myrcene, myrcene] | −26% | −10% | −51% | −15%
5 | CCCCCc1cc(O)c2c(c1)OC(C)(C)[C@@H]1CCC(C)=C[C@@H]21 [THC, tetrahydrocannabinol, reference compound] | −15% | −8% | −25% | −16%
